From patent US11607414B2, “Small molecule inhibitors of EGFR and PI3K” (The Regents of the University of Michigan, priority 2014, dated 2023)

Legend:
[1] = test system: pAKT and pEGFR in HCT-116 cells; test: Effect on pAKT and pEGFR in HCT-116 cells (Western blot); type: cell-based
Experimental: [50 mmol/L Tris-HCl (pH 8.0), 150 mmol/L NaCl, 1% NP40, 0.5% Na-deoxycholate, 0.1% SDS, containing protease (P8340, Sigma, St. Louis, Mo.) and phosphatase (P5726, Sigma) inhibitor cocktails]. The soluble protein concentration was determined by micro-bovine serum albumin assay (Pierce, Rockford, Ill.). Protein immunodetection was done by electrophoretic transfer of SDS-PAGE separated proteins to nitrocellulose, incubation with antibody, and chemiluminescent second step detection (PicoWest, Pierce). The antibodies included EGFR, phospho-EGFR (Y1068), phospho-p42/p44, phospho-Akt (473), phospho-Akt (308), total Akt, phosho-S6 (235/236), and total S6. All antibodies were obtained from Cell Signaling Technologies (Danvers, Mass.). […]
Cell extracts were prepared by detergent lysis [25 mmol/L Tris-HCl (pH 7.6), 150 mmol/L NaCl, 1% Nonidet P-40, 10% glycerol, 1 mM EDTA, 1 mmol/L dithiothreitol (DTT), and protease and phosphatase inhibitors, rocked for 30 minutes at 4° C., and centrifuged at 14,000 rpm for 20 min at 4° C. Protein concentration was determined by BioRad Protein Assays and lysates were subsequently subjected to SDS gel electrophoresis. […] After incubation with either anti-rabbit HRP or anti-mouse HRP linked secondary antibody (Jackson ImmunoResearch Laboratories, Inc.), proteins were detected using chemiluminescence (GE Healthcare).

[2] = test system: phosphorylation of AKT in HCT-116 tumors; test: In vivo pharmacodynamics in subcutaneous HCT-116 tumors, pAKT; details: single oral dose 100 mg/kg, two hours post-dosing
From the text: (§1) However, additional synthesis of MOL-162 is needed to allow a full pharmacodynamic time course study to be carried out to determine the maximal degree of target inhibition of both targets after single and repeated daily dosing.

[3] = biological target: EGFR (Homo sapiens, UniProt P00533); test: Z'-LYTE biochemical kinase assay, EGFR
Sequence of EGFR (P00533 25-1210): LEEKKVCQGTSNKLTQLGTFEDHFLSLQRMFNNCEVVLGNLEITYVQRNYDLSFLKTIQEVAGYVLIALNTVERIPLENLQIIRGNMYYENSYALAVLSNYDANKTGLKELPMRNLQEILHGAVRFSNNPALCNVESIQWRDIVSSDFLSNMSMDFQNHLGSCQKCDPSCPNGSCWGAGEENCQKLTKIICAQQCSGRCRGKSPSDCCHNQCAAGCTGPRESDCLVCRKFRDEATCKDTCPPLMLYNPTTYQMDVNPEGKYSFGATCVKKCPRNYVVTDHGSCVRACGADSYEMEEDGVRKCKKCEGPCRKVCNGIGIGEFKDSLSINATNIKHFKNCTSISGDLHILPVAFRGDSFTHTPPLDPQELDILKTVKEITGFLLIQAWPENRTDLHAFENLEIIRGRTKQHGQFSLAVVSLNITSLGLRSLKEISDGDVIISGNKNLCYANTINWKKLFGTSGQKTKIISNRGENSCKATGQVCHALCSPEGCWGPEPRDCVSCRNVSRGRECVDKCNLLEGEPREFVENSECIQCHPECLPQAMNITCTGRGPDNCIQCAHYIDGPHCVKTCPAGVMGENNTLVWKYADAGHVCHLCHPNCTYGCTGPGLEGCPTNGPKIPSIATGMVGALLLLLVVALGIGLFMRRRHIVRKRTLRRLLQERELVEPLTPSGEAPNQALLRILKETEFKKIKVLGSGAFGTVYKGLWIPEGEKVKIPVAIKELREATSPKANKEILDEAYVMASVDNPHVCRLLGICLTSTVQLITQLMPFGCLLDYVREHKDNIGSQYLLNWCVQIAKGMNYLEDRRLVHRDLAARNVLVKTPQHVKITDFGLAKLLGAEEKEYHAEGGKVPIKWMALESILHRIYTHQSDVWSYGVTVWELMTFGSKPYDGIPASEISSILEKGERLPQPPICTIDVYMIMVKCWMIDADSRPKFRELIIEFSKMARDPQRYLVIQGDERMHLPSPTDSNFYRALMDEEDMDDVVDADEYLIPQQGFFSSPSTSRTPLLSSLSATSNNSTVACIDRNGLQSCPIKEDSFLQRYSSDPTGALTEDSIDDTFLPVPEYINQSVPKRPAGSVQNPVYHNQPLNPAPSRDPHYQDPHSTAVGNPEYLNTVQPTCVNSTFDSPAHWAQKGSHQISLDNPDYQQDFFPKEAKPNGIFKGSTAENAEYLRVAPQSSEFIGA
Experimental: Various compounds were tested for their ability to inhibit EGFR and PIK3CA. The assays determining inhibitions are given in Example 2 Assays-Z′-LYTE® and ADAPTA.
Assays: The Z′-LYTE® biochemical assay employs a fluorescence-based, coupled-enzyme format and is based on the differential sensitivity of phosphorylated and non-phosphorylated peptides to proteolytic cleavage (FIG. 6). The peptide substrate is labeled with two fluorophores—one at each end— that make up a FRET pair. In the primary reaction, the kinase transfers the gamma-phosphate of ATP to a single tyrosine, serine or threonine residue in a synthetic FRET-peptide. […] A ratiometric method, which calculates the ratio (the Emission Ratio) of donor emission to acceptor emission after excitation of the donor fluorophore at 400 nm, is used to quantitate reaction progress.
A significant benefit of this ratiometric method for quantitating reaction progress is the elimination of well-to-well variations in FRET-peptide concentration and signal intensities. […]
Both cleaved and uncleaved FRET-peptides contribute to the fluorescence signals and therefore to the Emission Ratio. The extent of phosphorylation of the FRET-peptide can be calculated from the Emission Ratio. […]
Bar-coded Corning, low volume NBS, black 384-well plate (Corning Cat. 4514) 1. […] Read on fluorescence plate reader and analyze the data.

[4] = test system: KRAS mutant HCT-116 cells; test: HCT-116 cell viability / proliferation (Cell Titer Glo); type: cell-based
Experimental: Cell proliferation was determined using the Cell Titer Glo assay (Promega, Madison, Wis.). Cell lines were seeded at a density between 2,000 and 5,000 cells per well in a 96-well plate. Twenty four hours after plating, cells were dosed with varying concentrations of drug, either as a single agent or in combination. The signal for Cell Titer Glo was determined 72 or 96 hours after dosing.

[5] = test system: phosphorylation of EGFR in HCT-116 tumors; test: In vivo pharmacodynamics in subcutaneous HCT-116 tumors, pEGFR; details: single oral dose 100 mg/kg, two hours post-dosing
From the text: as §1

## CS(=O)(=O)Nc1cncc(-c2ccc3ncnc(Nc4cccc(Cl)c4)c3c2)c1 [MOL-162, N-(5-(4-((3-chlorophenyl)amino)quinazolin-6-yl)pyridin-3-yl)methanesulfonamide]
[1]
  cellular modulation of EGFR and PI3K pathways: cellular modulation of both pathways
[2]
  phosphorylation of AKT in tumors: not as strongly inhibited
[3]
  inhibition of / potency against purified EGFR (in words): potent dual inhibition
[4]
  cytotoxicity: cytotoxicity
[5]
  phosphorylation of EGFR in tumors: completely suppressed
